Measured values published in patent publication US11225462B2, “Crystal forms of oxypyridine amide derivative and preparation method therefor” (JIANGSU HENGRUI MEDICINE CO., LTD., priority 2018, dated 2022).

What was measured:
Format in all cases: physicochemical
[1] = Influencing factor experiments (light, high temperature, high humidity, 30 days); conditions: for Crystal form: day 5 to day 10, time not clear
Protocol: Crystal forms A, B, D and F of the compound of formula (I) were spread and left open to the air, and under conditions of high temperature (40° C. and 60° C.), light (4500 Lux), high humidity (RH 75% and RH 90%), the stability thereof were investigated for a period of 30 days.

[2] = Long-term and accelerated stability experiments (3 months)
Protocol: The long-term (25° C., 60% RH) and accelerated (40° C., 75% RH) stability of crystal form A and crystal form F of the compound of formula (I) were investigated for 3 months.

[3] = DVS (dynamic vapor sorption) hygroscopicity characterization; conditions: for mass increase under normal conditions: 25° C. and 60% RH; for hygroscopicity according to guidelines for drug hygroscopicity test in China Pharmacopoeia (2015 edition) / mass increase as the humidity increases: 25° C., 10% RH to 80% RH; for mass increase under accelerated test conditions: 70% RH; for mass increase under extreme conditions: 90% RH; for desorption process and adsorption process of the sample: humidity change from 0% to 95%
Protocol: DVS refers to dynamic vapor sorption and is determined using SMS DVS Advantage at 25° C., with the humidity change of 50%-95%-0%-95%-50% and the stepping of 10% (5% for the last step) (the specific humidity range is determined in accordance with the corresponding plot, and the methods listed herein are those most commonly used), and the standard for determination is as follow: dm/dt is not more than 0.02%, and Tmax is not more than 360 min.

Structure (SMILES): CCC(=O)c1ccc(Cl)cc1-c1cc(=O)n([C@@H](CCOC(C)(C)C)C(=O)Nc2ccc(C(=O)O)cc2)cc1OC [Crystal form A, (S)-4-(4-(tert-butoxy)-2-(4-(5-chloro-2-propionylphenyl)-5-methoxy-2-oxopyridin-1(2H)-yl)butanamido)benzoic acid]
- % Purity ([1]; 40° C., 5 days): 98.74%
- Color and trait ([1]; 40° C., 5 days): Yellow solid
- % Purity ([1]; 40° C., 10 days): 98.70%
- Color and trait ([1]; 40° C., 10 days): Yellow solid
- % Purity ([1]; 40° C., 30 days): 98.48%
- Color and trait ([1]; 40° C., 30 days): Yellow solid
- % Purity ([1]; 60° C., 5 days): 98.73%
- Color and trait ([1]; 60° C., 5 days): Yellow solid
- % Purity ([1]; 60° C., 10 days): 98.68%
- Color and trait ([1]; 60° C., 10 days): Yellow solid
- % Purity ([1]; 60° C., 30 days): 98.50%
- Color and trait ([1]; 60° C., 30 days): Yellow solid
- % Purity ([1]; 4500 Lux, 5 days): 98.74%
- Color and trait ([1]; 4500 Lux, 5 days): Yellow solid
- % Purity ([1]; 4500 Lux, 10 days): 98.74%
- Color and trait ([1]; 4500 Lux, 10 days): Yellow solid
- % Purity ([1]; 4500 Lux, 30 days): 98.75%
- Color and trait ([1]; 4500 Lux, 30 days): Yellow solid
- % Purity ([1]; Initial condition, day 0): 98.76%
- Color and trait ([1]; Initial condition, day 0): Yellow solid
- % Purity ([1]; RH 75%, 5 days): 98.76%
- % Weight gain ([1]; RH 75%, 5 days): 1.15%
- Color and trait ([1]; RH 75%, 5 days): Yellow solid
- % Purity ([1]; RH 75%, 10 days): 98.76%
- % Weight gain ([1]; RH 75%, 10 days): 3.30%
- Color and trait ([1]; RH 75%, 10 days): Yellow solid
- % Purity ([1]; RH 75%, 30 days): 98.76%
- % Weight gain ([1]; RH 75%, 30 days): 5.85%
- Color and trait ([1]; RH 75%, 30 days): Yellow solid
- % Purity ([1]; RH 90%, 5 days): 98.75%
- % Weight gain ([1]; RH 90%, 5 days): 3.18%
- Color and trait ([1]; RH 90%, 5 days): Yellow solid
- % Purity ([1]; RH 90%, 10 days): 98.75%
- % Weight gain ([1]; RH 90%, 10 days): 8.14%
- Color and trait ([1]; RH 90%, 10 days): Yellow solid
- % Purity ([1]; RH 90%, 30 days): 98.76%
- % Weight gain ([1]; RH 90%, 30 days): 11.37%
- Color and trait ([1]; RH 90%, 30 days): Yellow solid
- physical and chemical stability (conclusion) ([1]; light, 40° C., 60° C., 75% RH or 90% RH for 30 days): good physical and chemical stability
- % Purity 1 month ([2]; 25° C., 60% RH): 98.80%
- % Purity 2 months ([2]; 25° C., 60% RH): 98.77%
- % Purity 3 months ([2]; 25° C., 60% RH): 98.76%
- % Purity Initial condition ([2]; 25° C., 60% RH): 98.79%
- % Purity 1 month ([2]; 40° C., 75% RH): 98.79%
- % Purity 2 months ([2]; 40° C., 75% RH): 98.75%
- % Purity 3 months ([2]; 40° C., 75% RH): 98.74%
- % Purity Initial condition ([2]; 40° C., 75% RH): 98.79%
- physical and chemical stability (conclusion) ([2]; long-term (25° C., 60% RH) and accelerated (40° C., 75% RH) conditions for 3 months): good physical and chemical stability
- mass increase under normal conditions [3]: about 1.156%
- hygroscopicity according to guidelines for drug hygroscopicity test in China Pharmacopoeia (2015 edition) [3]: slightly hygroscopic (less than 2% but not less than 0.2%)
- mass increase as the humidity increases [3]: about 1.781%
- mass increase under accelerated test conditions [3]: about 1.479%
- mass increase under extreme conditions [3]: about 2.199%
- crystal form before and after DVS detection (XRPD comparison) [3]: unchanged
- desorption process and adsorption process of the sample [3]: basically coincide

Structure (SMILES): CCC(=O)c1ccc(Cl)cc1-c1cc(=O)n([C@@H](CCOC(C)(C)C)C(=O)Nc2ccc(C(=O)O)cc2)cc1OC [Crystal form B, (S)-4-(4-(tert-butoxy)-2-(4-(5-chloro-2-propionylphenyl)-5-methoxy-2-oxopyridin-1(2H)-yl)butanamido)benzoic acid]
- % Purity ([1]; 40° C., 15 days): 98.99%
- Color and trait ([1]; 40° C., 15 days): Light yellow
- % Purity ([1]; 40° C., 30 days): 98.57%
- Color and trait ([1]; 40° C., 30 days): Light yellow
- % Purity ([1]; 60° C., 15 days): 99.10%
- Color and trait ([1]; 60° C., 15 days): Light yellow
- % Purity ([1]; 60° C., 30 days): 98.60%
- Color and trait ([1]; 60° C., 30 days): Light yellow
- % Purity ([1]; 4500 Lux, 15 days): 99.01%
- Color and trait ([1]; 4500 Lux, 15 days): Yellow solid
- % Purity ([1]; 4500 Lux, 30 days): 98.71%
- Color and trait ([1]; 4500 Lux, 30 days): Yellow solid
- % Purity ([1]; Initial condition, day 0): 99.65%
- Color and trait ([1]; Initial condition, day 0): Light yellow
- % Purity ([1]; RH 75%, 15 days): 99.62%
- % Weight gain ([1]; RH 75%, 15 days): 6.76%
- Color and trait ([1]; RH 75%, 15 days): Light yellow
- % Purity ([1]; RH 75%, 30 days): 99.59%
- % Weight gain ([1]; RH 75%, 30 days): 8.34%
- Color and trait ([1]; RH 75%, 30 days): Light yellow
- % Purity ([1]; RH 90%, 15 days): 99.64%
- % Weight gain ([1]; RH 90%, 15 days): 14.89%
- Color and trait ([1]; RH 90%, 15 days): Light yellow
- % Purity ([1]; RH 90%, 30 days): 99.56%
- % Weight gain ([1]; RH 90%, 30 days): 19.11%
- Color and trait ([1]; RH 90%, 30 days): Light yellow
- mass increase under normal conditions [3]: about 1.155%
- hygroscopicity according to guidelines for drug hygroscopicity test in China Pharmacopoeia (2015 edition) [3]: slightly hygroscopic (less than 2% but not less than 0.2%)
- mass increase as the humidity increases [3]: about 1.968%
- mass increase under accelerated test conditions [3]: about 1.530%
- mass increase under extreme conditions [3]: about 3.963%
- crystal form before and after DVS detection (XRPD comparison) [3]: change to crystal form A
- desorption process and adsorption process of the sample [3]: basically coincide

Structure (SMILES): CCC(=O)c1ccc(Cl)cc1-c1cc(=O)n([C@@H](CCOC(C)(C)C)C(=O)Nc2ccc(C(=O)O)cc2)cc1OC [Crystal form D, (S)-4-(4-(tert-butoxy)-2-(4-(5-chloro-2-propionylphenyl)-5-methoxy-2-oxopyridin-1(2H)-yl)butanamido)benzoic acid]
- % Purity ([1]; 40° C., 5 days): 99.53%
- Color and trait ([1]; 40° C., 5 days): Off-white
- % Purity ([1]; 40° C., 10 days): 99.02%
- Color and trait ([1]; 40° C., 10 days): Off-white
- % Purity ([1]; 40° C., 30 days): 98.95%
- Color and trait ([1]; 40° C., 30 days): Off-white
- Crystal form ([1]; 40° C.): Amor-
- % Purity ([1]; 60° C., 5 days): 99.40%
- Color and trait ([1]; 60° C., 5 days): Off-white
- % Purity ([1]; 60° C., 10 days): 99.31%
- Color and trait ([1]; 60° C., 10 days): Off-white
- % Purity ([1]; 60° C., 30 days): 99.09%
- Color and trait ([1]; 60° C., 30 days): Off-white
- Crystal form ([1]; 60° C.): Amor-
- % Purity ([1]; 4500 Lux, 5 days): 99.58%
- Color and trait ([1]; 4500 Lux, 5 days): Off-white
- % Purity ([1]; 4500 Lux, 10 days): 99.57%
- Color and trait ([1]; 4500 Lux, 10 days): Off-white
- % Purity ([1]; 4500 Lux, 30 days): 99.26%
- Color and trait ([1]; 4500 Lux, 30 days): Off-white
- Crystal form ([1]; 4500 Lux): Amor-
- % Purity ([1]; Initial condition, day 0): 99.59%
- Color and trait ([1]; Initial condition, day 0): Off-white
- % Purity ([1]; RH 75%, 5 days): 99.56%
- % Weight gain ([1]; RH 75%, 5 days): 5.30%
- Color and trait ([1]; RH 75%, 5 days): Off-white
- % Purity ([1]; RH 75%, 10 days): 99.53%
- % Weight gain ([1]; RH 75%, 10 days): 5.48%
- Color and trait ([1]; RH 75%, 10 days): Off-white
- % Purity ([1]; RH 75%, 30 days): 99.55%
- % Weight gain ([1]; RH 75%, 30 days): 5.56%
- Color and trait ([1]; RH 75%, 30 days): Off-white
- Crystal form ([1]; RH 75%): Amor-
- % Purity ([1]; RH 90%, 5 days): 99.57%
- % Weight gain ([1]; RH 90%, 5 days): 7.45%
- Color and trait ([1]; RH 90%, 5 days): Off-white
- % Purity ([1]; RH 90%, 10 days): 99.54%
- % Weight gain ([1]; RH 90%, 10 days): 8.67%
- Color and trait ([1]; RH 90%, 10 days): Off-white
- % Purity ([1]; RH 90%, 30 days): 99.55%
- % Weight gain ([1]; RH 90%, 30 days): 9.53%
- Color and trait ([1]; RH 90%, 30 days): Off-white
- Crystal form ([1]; RH 90%): Amor-
- mass increase under normal conditions [3]: about 2.143%
- hygroscopicity according to guidelines for drug hygroscopicity test in China Pharmacopoeia (2015 edition) [3]: hygroscopic (less than 15% but not less than 2%)
- mass increase as the humidity increases [3]: about 2.420%
- mass increase under accelerated test conditions [3]: about 2.494%
- mass increase under extreme conditions [3]: about 3.422%
- crystal form before and after DVS detection (XRPD comparison) [3]: crystallinity of the crystal form become worse
- desorption process and adsorption process of the sample [3]: do not coincide
